The subject of data set [1] is U2OS cells. The data set can be described thus: Puromycin dose required to kill wild-type cells. The class given is cell-based, Human. The procedure:
(§1) To generate CRISPR-Cas9 TEX264 knockout cells, two plasmids —a CRISPR/Cas9 KO plasmid containing guide RNA targeting TEX264 (sc-417333), and a homology directed repair plasmid containing a puromycin resistance cassette (sc-417333-HDR)—were purchased from Santa Cruz. 2.5 μg of each plasmid was transfected into early-passage HEK293, HeLa, and U2OS cells using Fugene HD (Promega). After 72 hours, media supplemented with puromycin was added to the cells. The puromycin dose required to kill wild-type cells was determined to be: 1.25 μg/ml for HEK293 cells, 0.6 μg/ml for HeLa cells, and 1 μg/ml for U2OS cells. After 72 hours, the puromycin-containing media was removed and cells were sorted using a cell sorter into single-cell populations on a 96-well plate. TEX264 expression was analysed by immunoblotting. Multiple clones of each cell line showing loss of all detectable TEX264 were selected for subsequent analysis.

The test system of data set [2] is HEK293 cells. The data set can be described thus: Puromycin dose required to kill wild-type cells. In kind it is cell-based, Human. The procedure: as §1
Data set [3] has as its system HeLa cells. Briefly: Puromycin dose required to kill wild-type cells. In kind it is cell-based, Human. The procedure:
as §1

Data set [4] concerns the target T1, TOP1cc (Homo sapiens, UniProt P11387).
T1 construct: endogenous in cells; host or cells: HEK293
T1 sequence (P11387 2-765 limits assumed): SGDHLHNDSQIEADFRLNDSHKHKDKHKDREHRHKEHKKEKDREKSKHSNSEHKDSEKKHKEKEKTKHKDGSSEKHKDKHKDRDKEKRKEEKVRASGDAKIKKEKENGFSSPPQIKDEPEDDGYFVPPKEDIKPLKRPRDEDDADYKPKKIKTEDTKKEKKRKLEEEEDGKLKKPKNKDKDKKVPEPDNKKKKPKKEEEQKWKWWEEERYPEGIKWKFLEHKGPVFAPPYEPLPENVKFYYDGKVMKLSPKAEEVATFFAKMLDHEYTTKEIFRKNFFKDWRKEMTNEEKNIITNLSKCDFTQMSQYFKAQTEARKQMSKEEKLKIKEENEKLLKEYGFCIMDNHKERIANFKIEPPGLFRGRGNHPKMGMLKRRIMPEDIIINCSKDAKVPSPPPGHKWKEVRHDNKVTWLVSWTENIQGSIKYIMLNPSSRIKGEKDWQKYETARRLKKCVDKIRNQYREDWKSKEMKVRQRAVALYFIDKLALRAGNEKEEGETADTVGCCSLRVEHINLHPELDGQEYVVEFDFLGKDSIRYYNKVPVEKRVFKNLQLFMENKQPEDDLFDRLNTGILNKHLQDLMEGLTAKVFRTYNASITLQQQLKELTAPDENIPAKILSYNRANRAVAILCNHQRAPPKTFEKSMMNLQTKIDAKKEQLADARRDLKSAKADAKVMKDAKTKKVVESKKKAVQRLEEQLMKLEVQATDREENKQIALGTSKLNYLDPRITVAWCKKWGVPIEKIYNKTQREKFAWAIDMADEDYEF
The data set can be described thus: RADAR assay of TOP1cc accumulation. The class given is cell-based. To be noted: HEK293 cells, 1 μM CPT for 1 hour, positive control.
Method: Treatment with 1 μM CPT for 1 hour was used as a positive control for TOP1cc induction. Double-stranded (ds)DNA is used as a loading control. […] FIG. 1C, Quantification of Figure 1A (error bars represent mean ±SEM; n=3; ***P<0.001, **P<0.01; Student's t-test).
Cells were grown to ˜70% confluency then lysed in M buffer (MB), containing 6 M guanidine thiocyanate, 10 mM Tris—HCl (pH 6.8), 20 mM EDTA, 4% Triton X-100, 1% N-lauroylsarcosine and 1% dithiothreitol. DNA was precipitated by adding 100% ethanol, then washed three times in wash buffer (20 mM Tris—HC1 pH 7.4, 150 mM NaCl and 50% ethanol), and solubilized in 8 mM NaOH. […] For TOP1ccs, samples were digested with Benzonase for 30 minutes at 37° C. and analysed by slot blot analysis on a Nitrocellulose membrane.
By lysing cells in chaotropic salts (6M guanidium isothiocyanate), detergents (4% Triton X-100 and 1% N-lauroylsarcosine), and a reducing agent (1% DTT), all molecular interactions, other than covalent interactions, are disrupted.

Data set [5] has as its system SUMOylated TOP1. Briefly: Denaturing immunoprecipitation of YFP-TOP1, SUMO immunoblot. In kind it is cell-based, human. To be noted: HEK293 cells, short treatment with a low dose (25 nM, 1 hour). A general note: Immunoblotting shows a protein as a band on a membrane.
Method: FIG. 9A, Immunoblot analysis of SUMO1 & SUMO2/3 after denaturing immunoprecipitation of YFP-TOP1 from HEK293 cells treated or not with CPT (25 nM) for 1 or 24 hours. […] Asterisks indicate SUMOylated TOP1.
(§2) Cells were lysed in IP lysis buffer (50 mM Tris, pH 7.4, 150 mM NaCl, 1 mM EDTA, 0.5% Triton X-100) or IP denaturing buffer (i.e. IP lysis buffer containing 1% SDS) supplemented with protease and phosphatase inhibitors and incubated on ice for 10 min. Denaturing IPs were quenched with Triton X-100 (to a final concentration of 1%). Chromatin was pelleted by centrifugation for 5 min at 1,000×g and then digested with Benzonase at room temperature in Benzonase buffer (2 mM MgCl2, 50 mM Tris, pH 7.4, 150 mM NaCl). Lysates were incubated with anti-FLAG M2 agarose (Sigma-Aldrich), Strep-Tactin Sepharose (IBA), or GFP-trap agarose (Chromotek) for 1-2 h on a rotator at 4° C., washed three times with IP wash buffer (150 mM NaCl, 50 mM Tris-HC1; 0.5 mM EDTA), and resuspended in 2× Laemmli buffer.
Data set [6] addresses T2, interaction between TEX264 and TOP1 (Homo sapiens, UniProt P11387).
T2 construct: FLAG immunoprecipitates prepared from HEK293 cells transiently expressing TEX264WT-FLAG cDNA or EV; expressed in transfected cells; host or cells: HEK293, transiently transfected with pCDNA3.1 TEX264-FLAG
T2 sequence (P11387 2-765 limits assumed): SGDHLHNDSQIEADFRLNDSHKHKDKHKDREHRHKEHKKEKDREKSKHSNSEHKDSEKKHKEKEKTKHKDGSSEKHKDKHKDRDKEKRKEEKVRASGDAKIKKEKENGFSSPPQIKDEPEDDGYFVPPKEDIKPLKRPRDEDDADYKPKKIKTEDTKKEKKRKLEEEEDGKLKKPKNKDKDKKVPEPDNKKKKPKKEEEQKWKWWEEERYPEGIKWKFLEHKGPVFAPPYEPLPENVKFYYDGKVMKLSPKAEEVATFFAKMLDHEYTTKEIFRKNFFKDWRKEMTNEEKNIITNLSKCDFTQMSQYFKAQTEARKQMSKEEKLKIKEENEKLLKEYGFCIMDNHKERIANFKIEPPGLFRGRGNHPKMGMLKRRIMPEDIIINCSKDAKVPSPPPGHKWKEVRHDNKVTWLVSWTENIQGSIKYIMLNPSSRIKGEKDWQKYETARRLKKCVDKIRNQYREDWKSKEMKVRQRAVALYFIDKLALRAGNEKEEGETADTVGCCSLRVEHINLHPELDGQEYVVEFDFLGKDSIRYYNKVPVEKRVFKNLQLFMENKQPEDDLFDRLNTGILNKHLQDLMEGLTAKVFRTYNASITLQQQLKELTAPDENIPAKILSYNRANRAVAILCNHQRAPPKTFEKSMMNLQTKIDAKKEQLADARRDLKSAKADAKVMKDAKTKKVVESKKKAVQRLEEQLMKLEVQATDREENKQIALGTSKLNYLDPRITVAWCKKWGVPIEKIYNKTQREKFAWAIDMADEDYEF
Briefly: Co-immunoprecipitation of TEX264-FLAG with TOP1. In kind it is cell-based. The settings on record: HEK293 cells.
Method: FIG. 2D, FLAG immunoprecipitates prepared from HEK293 cells transiently expressing TEX264WT-FLAG cDNA or EV, treated with CPT (25 nM) or DMSO for 1 hour. FIG. 2E, Immunoblots of anti-Strep-tag immunoprecipitates prepared from wild-type (WT) or ΔTEX264 HEK293 cells expressing p97-Strep-Myc.
FIG. 7G, Immunoblot analysis of TEX264-FLAG immunoprecipitates prepared from HEK293 cells treated with the indicated doses of CPT for 1 hour.
as §2

The subject of data set [7] is metastatic colorectal cancer. The settings on record: patients with metastatic colorectal cancer; cited from earlier work.
Data set [8] concerns the target T3, TOP1 cleavage complexes purified from HEK293 cells by CsCl-gradient fractionation.
T3 chain: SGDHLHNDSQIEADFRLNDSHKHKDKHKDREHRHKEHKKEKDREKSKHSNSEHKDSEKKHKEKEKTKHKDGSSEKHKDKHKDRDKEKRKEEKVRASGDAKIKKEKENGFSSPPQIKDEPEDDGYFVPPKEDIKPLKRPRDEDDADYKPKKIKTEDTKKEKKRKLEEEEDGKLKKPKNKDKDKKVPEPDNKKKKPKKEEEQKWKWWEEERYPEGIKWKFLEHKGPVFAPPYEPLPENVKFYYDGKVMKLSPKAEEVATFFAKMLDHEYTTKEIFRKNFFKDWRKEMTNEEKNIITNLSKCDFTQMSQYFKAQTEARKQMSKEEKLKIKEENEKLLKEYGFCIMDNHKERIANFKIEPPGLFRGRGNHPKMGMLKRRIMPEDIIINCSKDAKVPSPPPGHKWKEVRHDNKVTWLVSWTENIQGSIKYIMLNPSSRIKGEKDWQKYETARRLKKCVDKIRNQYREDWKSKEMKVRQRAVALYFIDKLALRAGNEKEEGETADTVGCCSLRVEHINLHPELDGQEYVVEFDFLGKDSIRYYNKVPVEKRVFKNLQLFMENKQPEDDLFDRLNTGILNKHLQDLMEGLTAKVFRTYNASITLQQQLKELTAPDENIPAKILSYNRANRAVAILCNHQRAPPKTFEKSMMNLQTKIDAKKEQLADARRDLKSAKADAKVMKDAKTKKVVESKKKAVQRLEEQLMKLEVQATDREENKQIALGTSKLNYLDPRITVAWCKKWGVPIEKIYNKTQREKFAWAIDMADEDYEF

The target of data set [9] is T4, endogenous p97 of HEK293 cells (human, UniProt P55072 2-806).
T4 construct: Detected in immunoprecipitates by mass spectrometry or immunoblot; also called AAA ATPase p97
The data set can be described thus: anti-Strep-tag immunoprecipitation from HEK293 cells, immunoblot (FIG. 10c). The procedure:
FIG. 10A, Colony forming assay to assess the survival of HeLa cells transfected with the indicated siRNAs following a 24 hour treatment with the indicated doses of CPT. FIG. 10B, Immunoblots to confirm depletion efficacy in A. FIG. 10C, Analysis of anti-Strep-tag immunoprecipitates prepared from HEK293 cells expressing SPRTN-SSH, transfected with the indicated siRNA. FIG. 10D, Total DNA-protein crosslinks (DPCs) isolated by RADAR from HEK293 cells treated with the indicated siRNAs. DPCs were resolved by SDS-PAGE and visualised by silver staining. FIG. 10E, Quantification of FIG. 10D (error bars represent mean ±SD; n=2; **P<0.01; ns, not significant; Student's t-test). FIG. 10F, In vitro TOP1cc repair assay. TOP1ccs were purified by CsCl-gradient centrifugation from HEK293 cells, incubated with the indicated purified proteins (100 nM/reaction), slot-blotted onto a nitrocellulose membrane and probed with a […] -specific antibody.
To explore how TEX264 regulates SPRTN-dependent TOP1cc processing, SPRTN-SSH was immunoprecipitated from wild-type and TEX264-depleted HEK293 cell extracts. […] As p97 exists in hexameric complexes, it can bind multiple cofactors at a time (Buchberger et al., 2015; Hänzelmann et al., 2011). […]

T4 sequence (P55072 2-806 limits assumed): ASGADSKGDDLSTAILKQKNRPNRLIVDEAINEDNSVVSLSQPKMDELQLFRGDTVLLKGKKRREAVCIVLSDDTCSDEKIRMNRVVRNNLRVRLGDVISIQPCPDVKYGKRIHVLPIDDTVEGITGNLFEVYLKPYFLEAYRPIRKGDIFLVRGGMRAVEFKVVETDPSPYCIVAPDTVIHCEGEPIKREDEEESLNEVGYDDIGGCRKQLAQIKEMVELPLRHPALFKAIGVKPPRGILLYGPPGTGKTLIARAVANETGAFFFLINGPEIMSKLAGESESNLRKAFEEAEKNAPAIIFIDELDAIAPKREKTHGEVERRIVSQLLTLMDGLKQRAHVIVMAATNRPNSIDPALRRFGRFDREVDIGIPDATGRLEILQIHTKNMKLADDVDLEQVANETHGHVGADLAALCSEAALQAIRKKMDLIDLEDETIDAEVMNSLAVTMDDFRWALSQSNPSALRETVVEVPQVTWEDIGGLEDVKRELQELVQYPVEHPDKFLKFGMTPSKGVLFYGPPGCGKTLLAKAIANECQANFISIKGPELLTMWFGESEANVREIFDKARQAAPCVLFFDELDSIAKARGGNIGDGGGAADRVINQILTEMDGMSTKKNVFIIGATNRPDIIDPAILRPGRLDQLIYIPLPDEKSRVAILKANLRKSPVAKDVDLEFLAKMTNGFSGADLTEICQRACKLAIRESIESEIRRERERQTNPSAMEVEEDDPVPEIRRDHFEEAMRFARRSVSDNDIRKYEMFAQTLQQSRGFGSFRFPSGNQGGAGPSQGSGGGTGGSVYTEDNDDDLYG

Consider `COc1ccc(C[C@H](N)C(=O)N[C@H]2[C@@H](O)[C@H](n3cnc4c(N(C)C)ncnc43)O[C@@H]2CO)cc1` [puromycin], for which the results for the “puromycin dose required to kill wild-type cells” value in data set [1], in data set [2] and in [3] were 1 µg/mL, 1.25 µg/mL and 0.6 µg/mL, respectively.
With `CC[C@@]1(O)C(=O)OCc2c1cc1n(c2=O)Cc2cc3ccccc3nc2-1` [CPT, Camptothecin], the TOP1cc accumulation entry in [4] is “substantial TOP1cc accumulation”. Also, the “SUMOylated TOP1, particularly SUMO1” value in data set [5] is listed as “moderate increases”. The “co-immunoprecipitation of TOP1 with p97 or TEX264” value in data set [6] (1 μM CPT) was “did not co-immunoprecipitate”. In addition, in data set [6] (CPT 25 nM for 1 hour), the “interaction between TEX264 and TOP1” value is “increased markedly”.
Consider `O=c1[nH]cc(F)c(=O)[nH]1` [FU, fluorouracil], for which, in [7], the patient response rates was 10-15%.

B1: SPRTN-SSH expressed in HEK293 cells (enzyme)
chain: MDDDLMLALRLQEEWNLQEAERDHAQESLSLVDASWELVDPTPDLQALFVQFNDQFFWGQLEAVEVKWSVRMTLCAGICSYEGKGGMCSIRLSEPLLKLRPRKDLVETLLHEMIHAYLFVTNNDKDREGHGPEFCKHMHRINSLTGANITVYHTFHDEVDEYRRHWWRCNGPCQHRPPYYGYVKRATNREPSAHDYWWAEHQKTCGGTYIKIKEPENYSKKGKGKAKLGKEPVLAAENKDKPNRGEAQLVIPFSGKGYVLGETSNLPSPGKLITSHAINKTQDLLNQNHSANAVRPNSKIKVKFEQNGSSKNSHLVSPAVSNSHQNVLSNYFPRVSFANQKAFRGVNGSPRISVTVGNIPKNSVSSSSQRRVSSSKISLRNSSKVTESASVMPSQDVSGSEDTFPNKRPRLEDKTVFDNFFIKKEQIKSSGNDPKYSTTTAQNSSSSSSQSKMVNCPVCQNEVLESQINEHLDWCLEGDSIKVKSEESL
notes: also called SPRTN-wt-cSSH; not shown: C-terminal SSH tag (pulled down by anti-Strep-tag)
Take B1: in [8], the “in vitro TOP1cc repair assay (slot blot with TOP1cc-specific antibody), SPRTN alone” value was “SPRTN alone could process only a small proportion of TOP1ccs”; the “in vitro TOP1cc repair assay (slot blot with TOP1cc-specific antibody), TOP1ccs pre-incubated with p97 and TEX264” value is “this activity was enhanced when TOP1ccs were pre-incubated with p97 and TEX264 prior to the addition of SPRTN”. The binding result in [9] is reported as “binds”.
